Results reported in patent publication US9493468B2, “Antifungal 5,6-dihydro-4H-pyrrolo[1,2-a][1,4]benzo-diazepines and 6H-pyrrolo[1,2-a][1,4]benzodiazepines substituted with heterocyclic derivatives” (Janssen Pharmaceutica NV, priority 2011, dated 2016).

Legend:
Assay type in all cases: cell-based
Candida parapsilosis = test: Antifungal activity in vitro, resazurin growth inhibition: Candida parapsilosis (B66126)
Procedure, shortened: (§1)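 Compound dilutions, with 64 μM as the highest in-test level, are spotted onto plates, then an inoculum of 10^3 cfu in RPMI-1640 plus 2% glucose (MOPS, pH 7.0±0.1) is added. Plates are incubated at species-dependent time and temperature, up to a week or more at 27° C. for dermatophytes.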

Scedosporium apiospermum = test: Antifungal activity in vitro, resazurin growth inhibition: Scedosporium apiospermum (IHEM3817)
Method: (§2) The standard susceptibility screen is performed in 96-well plates (U-bottom, Greiner Bio-One). Serial dilutions (2-fold or 4-fold) of 20 mM compound stock solutions are made in 100% DMSO, followed by an intermediate dilution step in water. These serial dilutions (10 μl) are then spotted onto test-plates that can be stored in the dark at 4° C. for a maximum period of 2 weeks. An adequate broad dose-range is included with 64 μM as the highest in-test concentration. The culture medium RPMI-1640 is supplemented with L-glutamine, 2% glucose and buffered with 3-(N-morpholino)-propanesulfonic acid (MOPS) at pH 7.0±0.1.
(§3) The different fungal species/isolates (Table 3a) are cryopreserved and 1/1000 diluted in medium just prior to use. A standard inoculum of 200 μl containing 10^3 colony-forming unit (cfu) is then added to each well. A positive control (100% growth=fungal culture without antifungal) and a negative control (0% growth ═RPMI-MOPS medium) are included on each plate. Optimal incubation time and temperature are dependent on the fungal species and vary from 24 h for yeasts (37° C.) to one week or more for dermatophytes (27° C.). Inhibition of fungal growth is measured after adding 10 μl of 0.005% (w/v) resazurin (Sigma Aldrich) to each well, based on the principle that living cells convert the non-fluorescent blue resazurin into the pink and fluorescent resorufin, allowing fluorimetric reading (λex 550 nm and λem 590 nm) after an additional incubation period (‘resa’ time mentioned in Table 3a).

Cryptococcus neoformans = test: Antifungal activity in vitro, resazurin growth inhibition: Cryptococcus neoformans (B66663)
Procedure, shortened: as §1

Sporothrix schenkii = test: Antifungal activity in vitro, resazurin growth inhibition: Sporothrix schenkii (B62482)
Procedure, shortened: as §1

Aspergillus fumigatus = test: Antifungal activity in vitro, resazurin growth inhibition: Aspergillus fumigatus (B42928)
Procedure, shortened: as §1

Rhizopus oryzae = test: Antifungal activity in vitro, resazurin growth inhibition: Rhizopus oryzae (IHEM5223)
Method: as §2, §3

Scedosporium prolificans = test: Antifungal activity in vitro, resazurin growth inhibition: Scedosporium prolificans (IHEM21157)
Method: as §2, §3

[1] = system: Trichophyton mentagrophytes; test: Antifungal activity in vitro, resazurin growth inhibition: Trichophyton mentagrophytes (B70554)
Procedure, shortened: (§4)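 Dermatophytes incubated at 27° C. for one week or more with compound, max 64 μM, in RPMI-1640/MOPS pH 7.0±0.1, 10^3 cfu/well. Viability by resazurin-to-resorufin fluorescence, 550/590 nm.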

Rhizomucor miehei = test: Antifungal activity in vitro, resazurin growth inhibition: Rhizomucor miehei (IHEM13391)
Method: as §2, §3

Trichophyton rubrum = test: Antifungal activity in vitro, resazurin growth inhibition: Trichophyton rubrum (B68183)
Procedure, shortened: as §4

Microsporum canis = test: Antifungal activity in vitro, resazurin growth inhibition: Microsporum canis (B68128)
Procedure, shortened: as §4

Row | SMILES | Inf. D: Candida parapsilosis B66126, pIC50 (Candida parapsilosis) | Inf. H: Scedosporium apiospermum IHEM3817, pIC50 (Scedosporium apiospermum) | Inf. F: Cryptococcus neoformans B66663, pIC50 (Cryptococcus neoformans) | Inf. A: Sporothrix schenkii B62482, pIC50 (Sporothrix schenkii) | Inf. E: Aspergillus fumigatus B42928, pIC50 (Aspergillus fumigatus) | Inf. J: Rhizopus oryzae IHEM5223, pIC50 (Rhizopus oryzae) | Inf. I: Scedosporium prolificans IHEM21157, pIC50 (Scedosporium prolificans) | Inf. G: Trichophyton mentagrophytes B70554, pIC50 [1] | Inf. K: Rhizomucor miehei IHEM13391, pIC50 (Rhizomucor miehei) | Inf. C: Trichophyton rubrum B68183, pIC50 (Trichophyton rubrum) | Inf. B: Microsporum canis B68128, pIC50 (Microsporum canis)
1 | Clc1ccc(C2=NCc3c(Cl)cccc3-n3cccc32)cn1 [Compound 77] | 4.69 | 4.88 | 5.03 | 4.52 | 6.05 | <4.19 | 5.57 | 5.71 | <4.19 | 6.22 | 5.67
2 | Clc1cc(C2=NCc3c(Cl)cccc3-n3cccc32)cnc1Cl [Compound 79] | 4.69 | 6.12 | <4.19 | <4.19 | 6.63 | <4.19 | 6.28 | 5.76 | <4.19 | 6.33 | 5.72
3 | CC(F)(F)c1ccc(C2=NCc3c(Cl)cc(Cl)cc3-n3cccc32)cn1 [Compound 84] | 5.44 | 5.31 | 5.88 | 5.65 | 6.24 | <4.19 | <4.19 | 5.88 | <4.19 | 6.26 | 6.24

Other lines, results leading:

Row | Inf. D: Candida parapsilosis B66126, pIC50 (Candida parapsilosis) | Inf. H: Scedosporium apiospermum IHEM3817, pIC50 (Scedosporium apiospermum) | Inf. F: Cryptococcus neoformans B66663, pIC50 (Cryptococcus neoformans) | Inf. A: Sporothrix schenkii B62482, pIC50 (Sporothrix schenkii) | Inf. E: Aspergillus fumigatus B42928, pIC50 (Aspergillus fumigatus) | Inf. J: Rhizopus oryzae IHEM5223, pIC50 (Rhizopus oryzae) | Inf. I: Scedosporium prolificans IHEM21157, pIC50 (Scedosporium prolificans) | Inf. G: Trichophyton mentagrophytes B70554, pIC50 [1] | Inf. K: Rhizomucor miehei IHEM13391, pIC50 (Rhizomucor miehei) | Inf. C: Trichophyton rubrum B68183, pIC50 (Trichophyton rubrum) | Inf. B: Microsporum canis B68128, pIC50 (Microsporum canis) | SMILES
4 | 5.285 | 6.01 | <4.19 | <4.19 | 6.28 | <4.19 | 6.24 | 6.24 | <4.19 | 6.85 | 6.37 | CC(F)(F)c1ccc(C2=NCc3c(Cl)cccc3-n3cccc32)cn1 [Compound 82]
5 | <4.19 | <4.19 | <4.19 | <4.19 | 5.33 | <4.19 | 6.09 | 5.88 | <4.19 | 6.68 | 4.97 | CC(F)(F)c1ccc(C2=NCc3c(F)cccc3-n3cccc32)cn1 [Compound 83]
